System: cortex metabolites
Test: Metabolomic analysis of cortex
Type: in vivo, mice
Settings: cortex
Procedure: Metabolomic analyses were conducted at Metabolon (Durham, NC, USA) as described previously. For statistical analyses and data display, any missing values were assumed to be below the limits of detection and imputed with the compound minimum (minimum value imputation). An estimate of the FDR (Q value) was calculated to take into account the multiple comparisons that normally occur in metabolomics-based studies, with Q < 0.05 used as an indication of high confidence in a result. The MetaboAnalyst tool was used to generate heat maps.

## Cc1ccc(N(/N=C/c2cccc(OC(F)(F)F)c2)C(=O)C(F)(F)F)c(C)c1 [CAD-31]
AD+31/AD, p-value 0.9434
  mannose-6-phosphate Fold Change: 1.05
AD+31/AD, p-value 0.9957
  cytidine 5'-monophospho-N-acetylneuraminic acid Fold Change: 1
C+31/C, p-value 0.0002
  ergothioneine Fold Change: 0.56
C+31/C, p-value 0.0006
  17-methylstearate Fold Change: 0.54
C+31/C, p-value 0.0029
  phenol sulfate Fold Change: 0.41
C+31/C, p-value 0.0034
  N-delta-acetylornithine Fold Change: 1.51
C+31/C, p-value 0.0046
  gamma-glutamylhistidine Fold Change: 0.55
C+31/C, p-value 0.0049
  1-palmitoylglycerol (16:0) Fold Change: 0.67
C+31/C, p-value 0.0052
  dihomo-linoleate (20:2n6) Fold Change: 0.53
C+31/C, p-value 0.0058
  linoleoyl ethanolamide Fold Change: 0.52
C+31/C, p-value 0.0074
  arachidate (20:0) Fold Change: 0.59
C+31/C, p-value 0.0076
  pyroglutamine* Fold Change: 1.27
C+31/C, p-value 0.0085
  adenosine 2'-monophosphate (2'-AMP) Fold Change: 1.49
C+31/C, p-value 0.0095
  docosatrienoate (22:3n3) Fold Change: 0.35
C+31/C, p-value 0.01
  stearate (18:0) Fold Change: 0.61
C+31/C, p-value 0.0112
  nonadecanoate (19:0) Fold Change: 0.63
C+31/C, p-value 0.0125
  1-oleoylglycerol (18:1) Fold Change: 0.6
C+31/C, p-value 0.0132
  10-nonadecenoate (19:1n9) Fold Change: 0.6
C+31/C, p-value 0.016
  3-hydroxybutyrylcarnitine (2) Fold Change: 1.78
C+31/C, p-value 0.0161
  adrenate (22:4n6) Fold Change: 0.5
C+31/C, p-value 0.0172
  oleate/vaccenate (18:1) Fold Change: 0.59
C+31/C, p-value 0.0212
  eicosenoate (20:1) Fold Change: 0.61
  lactate Fold Change: 1.26
C+31/C, p-value 0.0241
  palmitate (16:0) Fold Change: 0.65
C+31/C, p-value 0.0267
  margarate (17:0) Fold Change: 0.61
C+31/C, p-value 0.0327
  2-hydroxydecanoate Fold Change: 0.68
C+31/C, p-value 0.0338
  1-arachidonylglycerol (20:4) Fold Change: 0.66
C+31/C, p-value 0.0349
  3-hydroxybutyrate (BHBA) Fold Change: 1.87
C+31/C, p-value 0.035
  2-palmitoylglycerol (16:0) Fold Change: 0.65
C+31/C, p-value 0.0357
  succinylcarnitine Fold Change: 0.72
C+31/C, p-value 0.0363
  oleoyl-oleoyl-glycerol (18:1/18:1) [2]* Fold Change: 1.12
C+31/C, p-value 0.0372
  acetyl CoA Fold Change: 1.87
C+31/C, p-value 0.0376
  erucate (22:1n9) Fold Change: 0.64
C+31/C, p-value 0.0387
  glycerol 3-phosphate Fold Change: 0.8
C+31/C, p-value 0.0388
  docosadienoate (22:2n6) Fold Change: 0.62
C+31/C, p-value 0.0422
  acetylcarnitine Fold Change: 1.53
C+31/C, p-value 0.0423
  1-docosahexaenoylglycerol (22:6) Fold Change: 0.64
C+31/C, p-value 0.0449
  1-stearoyl-GPG (18:0) Fold Change: 0.59
C+31/C, p-value 0.0462
  arachidonoyl ethanolamide Fold Change: 0.86
  glucosamine-6-phosphate Fold Change: 1.4
C+31/C, p-value 0.0465
  glutamate Fold Change: 1.09
C+31/C, p-value 0.0476
  tricosenoate (23:1) Fold Change: 0.64
C+31/C, p-value 0.0477
  mead acid (20:3n9) Fold Change: 0.6
C+31/C, p-value 0.0695
  adenosine 5'-diphosphoribose (ADP-ribose) Fold Change: 1.15
C+31/C, p-value 0.0888
  sedoheptulose-7-phosphate Fold Change: 1.15
C+31/C, p-value 0.0897
  2-hydroxystearate Fold Change: 0.58
C+31/C, p-value 0.0923
  UDP-N-acetylglucosamine/galactosamine Fold Change: 1.08
C+31/C, p-value 0.0938
  2-oleoylglycerol (18:1) Fold Change: 0.77
C+31/C, p-value 0.0994
  putrescine Fold Change: 1.2
C+31/C, p-value 0.1114
  2-methylcitrate/homocitrate Fold Change: 1.09
C+31/C, p-value 0.126
  1-palmitoyl-GPG (16:0)* Fold Change: 0.57
C+31/C, p-value 0.1316
  mannose-6-phosphate Fold Change: 1.33
C+31/C, p-value 0.1579
  glutamate, gamma-methyl ester Fold Change: 1.35
C+31/C, p-value 0.1772
  anserine Fold Change: 1.18
C+31/C, p-value 0.179
  gulonate* Fold Change: 1.11
C+31/C, p-value 0.199
  glucose 6-phosphate Fold Change: 1.27
C+31/C, p-value 0.2317
  fructose-6-phosphate Fold Change: 1.26
C+31/C, p-value 0.233
  methylphosphate Fold Change: 1.1
C+31/C, p-value 0.2649
  1-oleoyl-2-linoleoyl-GPC (18:1/18:2)* Fold Change: 0.92
C+31/C, p-value 0.286
  N-formylmethionine Fold Change: 1.07
C+31/C, p-value 0.2996
  acetylphosphate Fold Change: 1.11
C+31/C, p-value 0.3099
  phosphoethanolamine Fold Change: 1.04
C+31/C, p-value 0.3211
  azelate (nonanedioate) Fold Change: 0.81
C+31/C, p-value 0.3291
  methionine Fold Change: 1.08
C+31/C, p-value 0.3422
  coenzyme A Fold Change: 0.88
C+31/C, p-value 0.3687
  arabinose Fold Change: 1.05
C+31/C, p-value 0.3875
  1-palmitoyl-2-gamma-linolenoyl-GPC (16:0/18:3n6)* Fold Change: 0.94
C+31/C, p-value 0.4046
  3-sulfo-nervonoyl-galactosylceramide (d18:1/24:1) Fold Change: 0.97
C+31/C, p-value 0.4061
  N-acetylmethionine Fold Change: 0.96
C+31/C, p-value 0.4075
  UDP-galactose Fold Change: 0.86
C+31/C, p-value 0.4104
  N-acetylglucosaminylasparagine Fold Change: 0.96
C+31/C, p-value 0.4172
  prolylglycine Fold Change: 0.96
C+31/C, p-value 0.4215
  1-stearoyl-GPC (18:0) Fold Change: 1.08
C+31/C, p-value 0.4319
  N-acetylalanine Fold Change: 1.04
C+31/C, p-value 0.4368
  1-oleoyl-2-arachidonoyl-GPI (18:1/20:4) * Fold Change: 1.04
C+31/C, p-value 0.4593
  1-(1-enyl-stearoyl)-2-arachidonoyl-GPE (P-18:0/20:4)* Fold Change: 0.98
C+31/C, p-value 0.4697
  UDP-glucose Fold Change: 0.92
C+31/C, p-value 0.4772
  galactose 1-phosphate Fold Change: 1.14
C+31/C, p-value 0.4871
  1-methylimidazoleacetate Fold Change: 1.07
C+31/C, p-value 0.4904
  cytidine 5'-monophospho-N-acetylneuraminic acid Fold Change: 0.95
C+31/C, p-value 0.5044
  ribose Fold Change: 1.04
C+31/C, p-value 0.512
  glycerate Fold Change: 0.86
C+31/C, p-value 0.5491
  glycerophosphoethanolamine Fold Change: 1.04
C+31/C, p-value 0.5572
  palmitoylcholine Fold Change: 0.92
C+31/C, p-value 0.5722
  1-stearoyl-2-oleoyl-GPI (18:0/18:1)* Fold Change: 1.05
C+31/C, p-value 0.5944
  sphingomyelin (d18:1/18:1, d18:2/18:0) Fold Change: 1.03
C+31/C, p-value 0.6209
  5-methylthioadenosine (MTA) Fold Change: 1.02
C+31/C, p-value 0.6443
  6-phosphogluconate Fold Change: 0.95
C+31/C, p-value 0.6796
  3-hydroxy-3-methylglutarate Fold Change: 1.02
C+31/C, p-value 0.6852
  2'-deoxycytidine Fold Change: 1.04
C+31/C, p-value 0.7525
  N-acetylglutamate Fold Change: 0.99
C+31/C, p-value 0.7663
  beta-citrylglutamate Fold Change: 1.03
C+31/C, p-value 0.8149
  O-methyltyrosine Fold Change: 1.04
C+31/C, p-value 0.8284
  N-acetyl-glucosamine 1-phosphate Fold Change: 1.06
C+31/C, p-value 0.8378
  1-palmitoyl-2-oleoyl-GPS (16:0/18:1) Fold Change: 1.01
C+31/C, p-value 0.8444
  hypoxanthine Fold Change: 1.01
C+31/C, p-value 0.8761
  lysine Fold Change: 1
C+31/C, p-value 0.9003
  hippurate Fold Change: 1.01
C+31/C, p-value 0.9027
  N-acetylneuraminate Fold Change: 1.01
C+31/C, p-value 0.9106
  1-palmitoyl-2-palmitoleoyl-GPC (16:0/16:1)* Fold Change: 1
C+31/C, p-value 0.9156
  glycerophosphoglycerol Fold Change: 1
C+31/C, p-value 0.9284
  deoxycarnitine Fold Change: 1.02
C+31/C, p-value 0.9846
  mannose Fold Change: 0.96
